Reference: ChEMBL document CHEMBL1127989, “Structure-activity studies of synthetic FKBP ligands as peptidyl-prolyl isomerase inhibitors” (Bioorg Med Chem Lett, 1994)

assay: Apparent inhibition constant against peptidyl prolyl isomerase; range=0.004-0.010; conditions: read-out: Ki app

SMILES	Ki [nM]
CCC(C)(C)C(=O)C(=O)N1CCCC[C@@H]1C(=O)OC(CCc1ccccc1)c1ccc2ccccc2c1 (stereo partly specified)	4

assay: Apparent inhibition constant against peptidyl prolyl isomerase; range = 0.002-0.006; conditions: read-out: Ki app

SMILES	Ki [nM]
CCC(C)(C)C(=O)C(=O)N1CCCC[C@@H]1C(=O)OC(CCc1ccc(OC)c(OC)c1)c1ccccc1 (stereo partly specified)	2

assay: Apparent inhibition constant against peptidyl prolyl isomerase (Ki app); conditions: not given

SMILES	Ki [nM]
O=C(C(=O)N1CCCCC1C(=O)N(CCCc1ccccc1)Cc1ccccc1)C1CCCCC1 (stereo unspecified)	20000
O=C(C(=O)N1CCCC[C@@H]1C(=O)NC(CO)Cc1ccccc1)C1CCCCC1 (stereo partly specified)	60000
CCOC(=O)C(CCc1ccccc1)NC(=O)[C@H]1CCCCN1C(=O)C(=O)C1CCCCC1 (stereo partly specified)	1900
O=C(C(=O)N1CCCCC1C(=O)NCCc1ccccc1)C1CCCCC1 (stereo unspecified)	3000

same assay, conditions: read-out: Ki app

SMILES	Ki [nM]
CCOC(=O)C1CCCCN1C(=O)C(=O)C1(O)CCCCO1 (stereo unspecified)	7000

assay: Inhibition constant against peptidyl prolyl isomerase; conditions: read-out: Ki app

SMILES	Ki [nM]
C/C(=C\c1ccccc1)COC(=O)C1CCCCN1C(=O)C(=O)C1CCCCC1 (stereo unspecified)	300
CCCC(=O)C1CCCCN1C(=O)C(=O)C(C)(C)CC (stereo unspecified)	30000
C=CCN(CC(=O)OCC)C(=O)C(=O)C1(OC)CCCCC1	260000
CCOC(=O)CN(C)C(=O)C(=O)C1(OC)CCCCC1	23000
CCOC(=O)[C@@H]1CCCN1C(=O)C(=O)C1(OC)CCCCC1	8000
CCOC(=O)C1CCCCN1C(=O)C(C)=O (stereo unspecified)	170000
CCC(C)(C)C(=O)C(=O)N1CCCCC1C(=O)OCCCC1CCCCC1 (stereo unspecified)	186
CCC(C)(C)C(=O)C(=O)N1CCCCC1C(=O)OCCc1ccccc1 (stereo unspecified)	340
O=C(C(=O)N1CCCCC1C(=O)NCCCc1ccccc1)C1CCCCC1 (stereo unspecified)	1000
CCC(C)(C)C(=O)C(=O)N1CCCCC1C(=O)OCCCc1c[nH]c2ccccc12 (stereo unspecified)	23
CCOC(=O)C1CCCCN1C(=O)C(=O)C(C)(C)C (stereo unspecified)	2000
CCOC(=O)C1CCCCN1C(=O)C(=O)C1(O)CCCCC1 (stereo unspecified)	1600
CCC(C)(C)C(=O)C(=O)N1CCCC[C@@H]1C(=O)OC(CCc1ccc2c(c1)OCO2)c1ccccc1 (stereo partly specified)	9
CCC(C)(C)C(=O)C(=O)N1CCCCC1C(=O)OCCCc1cccnc1 (stereo unspecified)	165
CCC(C)(C)C(=O)C(=O)N1CCCCC1C(=O)OCCCc1ccccc1OC (stereo unspecified)	60
CCOC(=O)C1CCCCN1C(=O)C(=O)Cc1ccccc1 (stereo unspecified)	9000
O=C(C(=O)N1CCCCC1C(=O)OCc1ccccc1)C1CCCCC1 (stereo unspecified)	400
CCC(C)(C)C(=O)C(=O)N1CCCCC1C(=O)OCc1cccc2ccccc12 (stereo unspecified)	250
CCOC(=O)C1CCCCN1C(=S)C(=O)CC(C)C (stereo unspecified)	4300
CCC(C)(C)C(=O)C(=O)N1CCCC[C@@H]1C(=O)OC(CCc1cc(OC)c(OC)c(OC)c1)c1ccccc1 (stereo partly specified)	9
C=CC(C)(C)C(CCc1ccccc1)OC(=O)[C@H]1CCCCN1C(=O)C(=O)C(C)(C)CC (stereo partly specified)	250

SMILES	Ki [nM]
CCC(C)(C)C(=O)C(=O)N1CCCCC1C(=O)OCCc1c[nH]c2ccccc12 (stereo unspecified)	330
CCOC(=O)C1CCCN(C(=O)C(=O)C2(OC)CCCCO2)C1 (stereo unspecified)	180000
CCC(C)(C)C(=O)C(=O)N1CCCCC1C(=O)OCCCCc1ccccc1 (stereo unspecified)	100
COC1(C(=O)C(=O)N2CCCCC2)CCCCO1 (stereo unspecified)	160000
CCOC(=O)C1CCCCN1C(=O)C(=O)CC (stereo unspecified)	50000
CCC(C)(C)C(=O)C(=O)N1CCCCC1C(=O)OCC(C)(C)C (stereo unspecified)	410
CC(C)(CCC1CCCCC1)OC(=O)C1CCCCN1C(=O)C(=O)C1CCCCC1 (stereo unspecified)	200
CCC(C)(C)C(=O)C(=O)N1CCCCC1C(=O)OC/C=C/c1ccc(OC)c(OC)c1 (stereo unspecified)	35
CCOC(=O)C1CCCCN1C(=O)C(=O)C1=CCCCO1 (stereo unspecified)	20000
COc1cc(CCCOC(=O)[C@@H]2CCCCN2S(=O)(=O)Cc2ccccc2)cc(OC)c1OC	230
CCOC(=O)C1CCCCN1C(=O)C(=O)c1ccccc1 (stereo unspecified)	8000
CCC(C)(C)C(O)C(=O)N1CCCC[C@H]1C(=O)OCCCc1ccccc1 (stereo partly specified)	2300
CCC(C)(C)C(=O)C(=O)N1CCCC[C@@H]1C(=O)OC(CCc1ccccc1)C1CCCCC1 (stereo partly specified)	7
CCOC(=O)C1CCCCN1C(=O)C(=O)N1CCCCC1 (stereo unspecified)	33000
CCC(C)(C)C(=O)C(=O)N1CCCC[C@@H]1C(=O)OC(CCC1CCCCC1)c1ccccc1 (stereo partly specified)	10
CCC(C)(C)C(=O)C(=O)N1CCCCC1C(=O)OC(CCc1ccccc1)Cc1ccccc1 (stereo unspecified)	55
CCOC(=O)C1CCCCN1C(=O)C(=O)C(C)(C)COC(C)=O (stereo unspecified)	1000
CCC(C)(C)C(=O)C(=O)N1CCCCC1C(=O)OCCCc1ccc(OC)c(OC)c1 (stereo unspecified)	20
CCC(C)(C)C(=O)C(=O)N1CCCCC1C(=O)OCCCc1cc(OC)c(OC)c(OC)c1 (stereo unspecified)	12
CCC(C)(C)C(=O)C(=O)N1CCCCC1C(=O)OCCC(c1ccccc1)c1ccccc1 (stereo unspecified)	27
CCOC(=O)C1CCCCN1C(=O)C(=O)C(C)C (stereo unspecified)	6000

SMILES	Ki [nM]
CCOC(=O)C1CCCCN1NC(=O)C1CCCCC1 (stereo unspecified)	730000
CCOC(=O)[C@H]1CCCCN1C(=O)C(=O)C1(OC)CCCCC1	22000
CCOC(=O)[C@H]1CCCN1C(=O)C(=O)C1(OC)CCCCC1	600000
CCC(C)(C)C(=O)C(=O)N1CCCC[C@H]1C(=O)OC(CCc1ccccc1)C1CCCCC1 (stereo partly specified)	300
CCOC(=O)C1CCCCN1C(=O)C(=O)CC(C)C (stereo unspecified)	2000
CCC(C)(C)C(=O)C(=O)N1CCCCC1C(=O)OCCCc1ccc(OC)cc1 (stereo unspecified)	70
CCOC(=O)C1CCCCN1C(=O)C(=O)C1(OC)CCCCC1 (stereo unspecified)	1000
O=C(C(=O)N1CCCC[C@H]1C(=O)OC(CCC1CCCCC1)c1ccccc1)C1CCCCC1 (stereo partly specified)	16000
COc1cc(CC[C@@H](OC(=O)[C@@H]2CCCCN2C(=O)CC(C)(C)C)c2ccccc2)cc(OC)c1OC	200
CCOC(=O)C1CCCCN1C(=O)C(=O)C1CCCCC1 (stereo unspecified)	2000
CCOC(=O)C1CCCCN1C(=O)C(=O)C1(OC)CCCCO1 (stereo unspecified)	4000
O=C(O[C@H](CCc1ccccc1)c1ccccc1)[C@@H]1CCCCN1S(=O)(=O)Cc1ccccc1	160
CCC(C)(C)C(=O)C(=O)N1CCCCC1C(=O)OCc1ccc2ccccc2c1 (stereo unspecified)	200
CCC(C)(C)C(=O)C(=O)N1CCCCC1C(=O)OCCCc1ccc(OCc2ccccc2)cc1 (stereo unspecified)	60
CCC(C)(C)C(=O)C(=O)N1CCCCC1C(=O)OCCCc1ccc(O)cc1 (stereo unspecified)	95
CCC(C)(C)C(=O)C(=O)N1CCCCC1C(=O)OCCCc1ccccc1 (stereo unspecified)	110
CCOC(=O)C1CCCCN1C(=O)C(=O)C(C)(C)CC (stereo unspecified)	660
O=CC1CCCCN1C(=O)C(=O)C1CCCCC1 (stereo in doubt; 35)	250
O=CC1CCCCN1C(=O)C(=O)C1CCCCC1 (stereo in doubt; 44)	200
O=CC1CCCCN1C(=O)C(=O)C1CCCCC1 (stereo in doubt; 59)	20
CO[C@H]1C[C@@H]2CC[C@@H](C)[C@@](O)(O2)C(=O)C(=O)N2CCCC[C@H]2C(=O)O[C@H]([C@H](C)C[C@@H]2CC[C@@H](O)[C@H](OC)C2)CC(=O)[C@H](C)/C=C(\C)[C@@H](O)[C@@H](OC)C(=O)[C@H](C)C[C@H](C)/C=C/C=C/C=C/1C [SIROLIMUS]	1000

assay: Apparent inhibition constant against peptidyl prolyl isomerase; range=0.3-0.6; conditions: read-out: Ki app

SMILES	Ki [nM]
CCC(C)(C)C(=O)C(=O)N1CCCC[C@H]1C(=O)OC(CCc1ccccc1)c1ccccc1 (stereo partly specified)	300
